Assays:
[1] = test system: mice with intratracheal administration of LPS; assay: LPS-induced lung injury in mice (intratracheal LPS); assay type: in vivo; details: for lung injury after intratracheal LPS: 2% H2 and/or 20 ppm NO for 3 hours starting at 5 minutes or 3 hours after LPS administration; for pulmonary inflammation and cell apoptosis: H2 and/or NO treatment
Description: Applicants have discovered that NO's effect as an antioxidant may be enhanced by eliminating highly reactive by-products of NO inhalation such as peroxynitrite, by adding H2 to inhaled NO gas.

[2] = test system: rat brain ischemia-reperfusion (I/R); details: acute rat model, inhaled; Ohsawa 2007; cited from earlier work
[3] = test system: chrondrocytes; details: Yokota 2015; cited from earlier work
[4] = test system: rats exposed to high O2; details: cited from earlier work
[5] = test system: neonatal piglets; details: short-term exposure, Ekekezie 2000; cited from earlier work
[6] = test system: HIF; details: cited from earlier work

Compound | lung injury after intratracheal LPS [1] | pulmonary inflammation and cell apoptosis [1] | lung collagen accumulation [5] | other results
[HH] [H2, hydrogen] | significantly improved | down-regulated | – | brain injury associated with focal ischemia-reperfusion [2]: markedly suppressed; effect on cells under oxidant injury [3]: cytoprotective effects
[N]=O [NO, nitric oxide] | significantly improved | down-regulated | increases lung collagen accumulation | survival in high O2 exposure ([4]; rats, inhaled NO): increase survival; effect on HIF at high doses ([6]; high doses and after 30 minutes): inhibitory; effect on HIF at low dose ([6]; low dose, for 30 minutes, during hypoxia): stimulates
COC(=O)[C@@H](N)CCCN=C(N)N[N+](=O)[O-] [Nω-nitro-1-arginine methyl ester] | – | – | – | survival on exposure to >95% O2 with endogenous NO production blocked ([4]; neonatal rats, compared with control rats): significantly fewer survived
O=O [O2, oxygen] | – | – | increases lung collagen accumulation | –

Reference: patent US20200368271A1, “METHOD AND APPARATUS FOR ADMINISTERING GASES INCLUDING NITRIC OXIDE” (priority 2015, published 2020)
